Data: paper PMC10728186, “Acid phosphatase-like proteins, a biogenic amine and leukotriene-binding salivary protein family from the flea Xenopsylla cheopis” (Communications Biology, 2023)
Like-named read-outs stand apart in the source and are kept apart here.

Tests used:
Assay type in all cases: binding
XcAP-1 [1] = target: T1, XcAP-1 (Xenopsylla cheopis, UniProt A2IA89); assay: isothermal titration calorimetry
T1 construct: mature ORF (no signal peptide) in VR1020 vector, secreted from HEK293 / Expi293; monomer; residues Asp7-Asn361 (mature count) seen in crystal; natural Gly and Ser in place of the two catalytic His
T1 sequence (A2IA89 17-374): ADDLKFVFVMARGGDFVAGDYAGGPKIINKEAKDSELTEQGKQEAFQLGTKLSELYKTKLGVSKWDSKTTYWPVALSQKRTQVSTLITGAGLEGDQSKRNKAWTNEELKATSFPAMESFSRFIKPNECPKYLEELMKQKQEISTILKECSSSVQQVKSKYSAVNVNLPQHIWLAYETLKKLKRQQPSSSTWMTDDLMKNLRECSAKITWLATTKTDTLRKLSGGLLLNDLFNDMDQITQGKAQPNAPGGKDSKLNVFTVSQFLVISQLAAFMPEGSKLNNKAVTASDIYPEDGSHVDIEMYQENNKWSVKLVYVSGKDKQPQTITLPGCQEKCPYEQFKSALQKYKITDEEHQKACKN
From the text: isothermal titration calorimetry on XcAP-1

XcAP-2 = target: T2, XcAP-2 (Xenopsylla cheopis, UniProt A2IA93); assay: isothermal titration calorimetry
T2 construct: mature ORF (no signal peptide) in pcDNA3.1(+), secreted from HEK293 / Expi293; natural Gly and Pro in place of the two catalytic His; Thr10, Ile228, His265 (mature count)
T2 sequence (A2IA93 20-378): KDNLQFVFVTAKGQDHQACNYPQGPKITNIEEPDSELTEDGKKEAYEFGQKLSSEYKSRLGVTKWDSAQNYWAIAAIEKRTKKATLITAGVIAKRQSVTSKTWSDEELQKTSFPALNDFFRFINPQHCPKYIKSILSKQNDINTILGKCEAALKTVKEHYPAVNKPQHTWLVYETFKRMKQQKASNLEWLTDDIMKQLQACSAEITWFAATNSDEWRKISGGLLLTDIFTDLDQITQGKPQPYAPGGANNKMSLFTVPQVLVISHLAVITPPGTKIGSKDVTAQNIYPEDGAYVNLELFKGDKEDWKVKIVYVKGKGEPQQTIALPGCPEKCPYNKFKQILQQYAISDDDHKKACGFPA
From the text: isothermal titration calorimetry on XcAP-2

XcAP-3 = target: T3, XcAP-3 (Xenopsylla cheopis, UniProt A2IA90); assay: isothermal titration calorimetry
T3 construct: mature ORF (no signal peptide) in pcDNA3.1(+), secreted from HEK293 / Expi293; natural Gly and Pro in place of the two catalytic His; Thr10, Ile229, Lys266 (mature count)
T3 sequence (A2IA90 20-380): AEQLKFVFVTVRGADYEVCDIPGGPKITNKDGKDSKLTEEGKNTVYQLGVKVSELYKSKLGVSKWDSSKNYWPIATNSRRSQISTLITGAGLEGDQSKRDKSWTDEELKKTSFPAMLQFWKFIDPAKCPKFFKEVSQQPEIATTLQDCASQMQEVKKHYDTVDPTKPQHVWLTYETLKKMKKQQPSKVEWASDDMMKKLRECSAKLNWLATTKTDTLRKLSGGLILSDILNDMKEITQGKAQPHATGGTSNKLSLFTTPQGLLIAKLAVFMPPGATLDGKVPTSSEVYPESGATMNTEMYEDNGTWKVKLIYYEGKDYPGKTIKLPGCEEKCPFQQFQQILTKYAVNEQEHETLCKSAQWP
From the text: isothermal titration calorimetry on XcAP-3

XcAP-1 [2] = target: T1, XcAP-1; assay: isothermal titration calorimetry; crystal structure […] A
XcAP-1 [3] = target: T1, XcAP-1; assay: crystal structure […] A; conditions: co-purified from HEK293 culture, modelled from density; pocket near substituted catalytic residues; second site beside serotonin

| Kd (XcAP-2; read-out: XcAP-2) [nM] | Structure (SMILES) | Kd (XcAP-1 [1]; read-out: XcAP-1) [nM] | also measured |
| --- | --- | --- | --- |
|  | CNC[C@H](O)c1ccc(O)c(O)c1 [Epinephrine] | 17.7 |  |
| 111 | CCCCC/C=C\C[C@@H](O)/C=C/C=C/C=C\[C@@H](O)CCCC(=O)O [LTB4] |  |  |
| 78.7 | CCCCC/C=C\C\C=C/C=C/C=C/[C@@H](SC[C@H](NC(=O)CC[C@H](N)C(=O)O)C(=O)NCC(=O)O)[C@@H](O)CCCC(=O)O [LTC4] | 37.4 | Kd (XcAP-3; read-out: XcAP-3): 65.8 nM |
| 153 | CCCCC/C=C\C\C=C/C=C/C=C/[C@@H](SC[C@H](N)C(=O)NCC(=O)O)[C@@H](O)CCCC(=O)O [LTD4] |  |  |
| 60.2 | CCCCC/C=C\C\C=C/C=C/C=C/[C@@H](SC[C@H](N)C(=O)O)[C@@H](O)CCCC(=O)O [LTE4] |  |  |
|  | NC[C@H](O)c1ccc(O)c(O)c1 [Norepinephrine] | 76.9 |  |
|  | NCCc1c[nH]c2ccc(O)cc12 [Serotonin] |  | Kd (XcAP-1 [2]): 3.72 nM; Kd (XcAP-1 [1]; read-out: K (M^-1) (converted)): 5.92 nM |
|  | CCCCCC/C=C\CCCCCCCC(=O)O [palmitoleic acid] |  | crystal structure 1.75 A (XcAP-1 [3]): near the putative catalytic site of XcAP-1 was also observed, in which we modeled a palmitoleic acid |

| Structure (SMILES) | Kd (XcAP-2; read-out: XcAP-2) [nM] | Kd (XcAP-1 [1]; read-out: XcAP-1) [nM] | also measured |
| --- | --- | --- | --- |
| NCCc1c[nH]cn1 [Histamine] | 37.7 |  | Kd (XcAP-2; read-out: K (M^-1) (converted)): 43.9 nM; Kd (XcAP-3; read-out: K (M^-1) (converted)): 29.2 nM; Kd (XcAP-3; read-out: XcAP-3): 37 nM |
